Data as given in patent publication US8998396B2, “Treatment liquid for liquid jetting device, and cartridge containing the same” (Ricoh Company, Ltd., priority 2009, dated 2015).

Test: Surfactant solubility in the main solvent, judged visually
Assay type: physicochemical
Conditions: main solvent: water, glycerin and 1,3-butylene glycol
Excerpt: The surfactant was solved into the main solvent and the solubility thereof was judged visually.
A: Solved completely (transparent and colorless)

| Solubility in the main solvent (in words) | Compound |
| --- | --- |
| solves in the main solvent | CCCCCCCCN1CCCC1=O [LP-100, N-Octyl-2-Pyrrolidone] |
| cannot solve in the main solvent | CCCCCCCCCCCCN1CCCC1=O [LP-300, N-Dodecyl-2-Pyrrolidone] |
